Test results published in article PMC12003839 (Communications Biology, 2025).

target: T1, ECHS1 (short-chain enoyl-CoA hydratase) (Homo sapiens, UniProt P30084); assay: SPR; format: binding
T1 sequence (P30084 28-290): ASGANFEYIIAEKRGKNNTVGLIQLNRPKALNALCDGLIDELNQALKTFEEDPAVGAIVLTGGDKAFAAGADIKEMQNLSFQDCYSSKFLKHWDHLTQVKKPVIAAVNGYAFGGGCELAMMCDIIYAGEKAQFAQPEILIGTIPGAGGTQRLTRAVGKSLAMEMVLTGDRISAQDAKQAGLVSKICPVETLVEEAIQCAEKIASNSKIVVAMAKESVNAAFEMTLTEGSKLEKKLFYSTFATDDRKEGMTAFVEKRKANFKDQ

Structure (SMILES)	Kd [nM]
CCCCCC(=O)SCCNC(=O)CCNC(=O)[C@H](O)C(C)(C)COP(=O)(O)OP(=O)(O)OC[C@H]1O[C@@H](n2cnc3c(N)ncnc32)[C@H](O)[C@@H]1OP(=O)(O)O [hexanoyl-CoA]	2570
CCCCCCCC(=O)SCCNC(=O)CCNC(=O)[C@H](O)C(C)(C)COP(=O)(O)OP(=O)(O)OC[C@H]1O[C@@H](n2cnc3c(N)ncnc32)[C@H](O)[C@@H]1OP(=O)(O)O [octanoyl-CoA]	2640
C/C=C/C(=O)SCCNC(=O)CCNC(=O)[C@H](O)C(C)(C)COP(=O)(O)OP(=O)(O)OC[C@H]1O[C@@H](n2cnc3c(N)ncnc32)[C@H](O)[C@@H]1OP(=O)(O)O [crotonyl-CoA]	863
CC(=O)CC(=O)SCCNC(=O)CCNC(=O)[C@H](O)C(C)(C)COP(=O)(O)OP(=O)(O)OC[C@H]1O[C@@H](n2cnc3c(N)ncnc32)[C@H](O)[C@@H]1OP(=O)(O)O [acetoacetyl-CoA]	2690
